Experimental data: patent publication US10654808B2, “Tyrosine kinase inhibitor and pharmaceutical composition comprising same” (GUANGDONG RAYNOVENT BIOTECH CO., LTD., priority 2015, dated 2020)

Assays:
PDGFRB = biological target: T1, PDGFRB (Homo sapiens, UniProt P09619); assay: Z'-LYTE in vitro enzyme activity assay, PDGFRB; type: biochemical; conditions: 100 μM ATP, 60 minutes, room temperature; read-out: IC50 detected by Z'-LYTE, PDGFRB
T1 construct: purchased Millipore
Procedure, shortened: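 Z′-LYTE FRET kinase assay using 40 nM PDGFRB, 2 μM Tyr4 peptide and 100 μM ATP in HEPES pH 7.5 with Mg2+/Mn2+ and 1% DMSO. The reaction ran 60 min at room temperature, followed by development for 60 min at 23 °C. IC50 values came from 4-parameter fits over 11 concentrations (10 μM–0.17 nM).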

HUVEC = assay: CellTiter-Glo luminescent cell viability assay, HUVEC stimulated with hVEGF-165; type: cell-based; conditions: Homo sapiens, hVEGF-165 20 ng/ml, 72 hours, read-out: IC50 detected by CellTiter-Glo, HUVEC
Description: The intracellular ATP changes were measured by CellTiter-Glo® Luminescent Cell Viability Assay. The IC50 value of the compounds was used as an index to evaluate the inhibitory effect of the compounds on HUVEC in vitro.
HUVEC cell line (ATCC), EGM-2 BulletKit (Lonza), hVEGF-165 (Cell Signaling), trypsin (Invitrogen), DPBS (Hyclone), 384 cell plate (Greiner), 384 compound plate (Greiner), CO2 incubator (Thermo), centrifuge (Eppendorf), Vi-cell cell counter (Beckman Coulter), Bravo Automatic Liquid Workstation (Agilent), Envision (Perkin Elmer)
B: Cell plating: HUVEC cells were resuspended with starved medium (only containing 2% FBS and 0.1% GA-1000) and diluted to a concentration of 20,000/mL. The diluted cells were added to a 384 plate (Greiner), 50 μl per well. The cell plates were placed in a 37° C., 5% CO2 incubator overnight.
C: Drug addition: the test compounds were diluted 4 times to obtain a total of 10 doses at a final concentration of 10 uM to 0.038 nM, two parallel wells. The middle plate was added with 47.6 uL of starved medium per well. 2.4 μl of compounds was transferred from a gradient dilution compound plate to a middle plate and mixed well. 5 μl of liquid was transferred from the middle plate to a cell plate. Incubate for 1 hour at 37° C. in a 5% CO2 incubator, 5 μl of starved medium containing hVEGF-165 (the final concentration was 20 ng/ml) and Heparin (the final concentration was 1 ng/m) were added and incubated at 37° C. in a 5% CO2 incubator for 72 hours.
D: After 72 hours, 30 μl of assay reagents was added and incubated at room temperature for 10-30 minutes, Envision was used to read the plate.
The reading was converted into suppression rate (%) (Max−Sample)/(Max−Min)*100%. Parameter curve fitting (Model 205 in XLFIT5, iDBS) was used to measure to obtain IC50 data.

FGFR1 = biological target: T2, FGFR1 (Homo sapiens, UniProt P11362); assay: Z'-LYTE in vitro enzyme activity assay, FGFR1; type: biochemical; conditions: 25 μM ATP, 60 minutes, room temperature; read-out: IC50 detected by Z'-LYTE, FGFR1
T2 construct: purchased Life technology
T2 sequence (P11362 22-822): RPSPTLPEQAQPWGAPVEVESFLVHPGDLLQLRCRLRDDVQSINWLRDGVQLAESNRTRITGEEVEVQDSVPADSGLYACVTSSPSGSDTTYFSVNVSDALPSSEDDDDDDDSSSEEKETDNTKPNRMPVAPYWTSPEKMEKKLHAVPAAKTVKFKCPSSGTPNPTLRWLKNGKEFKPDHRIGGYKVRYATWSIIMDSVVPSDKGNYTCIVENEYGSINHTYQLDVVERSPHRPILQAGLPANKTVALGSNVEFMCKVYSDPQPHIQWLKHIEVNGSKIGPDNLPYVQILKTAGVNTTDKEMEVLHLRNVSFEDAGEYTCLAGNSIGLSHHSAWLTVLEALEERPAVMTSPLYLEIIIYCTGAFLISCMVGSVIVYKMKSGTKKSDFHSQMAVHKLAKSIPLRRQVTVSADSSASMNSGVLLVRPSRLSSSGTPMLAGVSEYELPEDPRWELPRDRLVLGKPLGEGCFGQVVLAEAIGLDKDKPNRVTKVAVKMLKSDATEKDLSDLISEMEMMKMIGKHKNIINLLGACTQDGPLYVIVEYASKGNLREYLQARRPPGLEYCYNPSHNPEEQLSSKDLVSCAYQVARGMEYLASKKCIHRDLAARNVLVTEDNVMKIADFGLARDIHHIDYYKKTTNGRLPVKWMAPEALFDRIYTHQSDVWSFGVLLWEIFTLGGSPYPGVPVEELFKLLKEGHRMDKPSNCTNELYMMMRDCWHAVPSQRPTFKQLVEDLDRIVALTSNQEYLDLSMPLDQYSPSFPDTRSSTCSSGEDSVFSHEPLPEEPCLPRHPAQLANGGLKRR
Procedure, shortened: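 Z′-LYTE FRET assay with 1 nM FGFR1, 2 μM Tyr4 peptide and 25 μM ATP in HEPES pH 7.5 with Mg/Mn, 60 min at room temperature, then development 60 min at 23 °C. Compounds tested at 11 concentrations from 10 μM to 0.17 nM in 1% DMSO. IC50 from 4-parameter fit of inhibition.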

Calu 6 Transplant model = assay: Tumor growth inhibition (TGI), Calu 6 transplant model in mice; type: in vivo; conditions: QD
Description: The evolution and growth trends of the tumor was evaluated by the relationship between tumor volume and time. The long axis (L) and short axis (W) of the subcutaneous tumor were measured twice a week by the caliper and the volume of the tumor (TV) was calculated by the formula ((L×W^2)/2). TGI was calculated by the difference between the median tumor volume of the mice in the solvent group and the median tumor volume of the mice in the drug group expressed as a percentage of the tumor volume in the solvent control group
Calculated by the following formula: % TGI=((intermediate tumor volume (control)−intermediate tumor volume (administration group))/intermediate tumor volume (control group))×100%
The original statistical analysis was performed by repeated variance analysis, and then a multiple comparisons were performed using the Scheffe psot hoc test method. Individual solvent (0.5% methylcellulose+0.2% Tween aqueous solution) was a negative control.

VEGFR2 = biological target: T3, VEGFR2 (Homo sapiens, UniProt P35968); assay: Z'-LYTE in vitro enzyme activity assay, VEGFR2; type: biochemical; conditions: 100 μM ATP, 60 minutes, room temperature; read-out: IC50 detected by Z'-LYTE, VEGFR2
T3 construct: purchased Life technology
T3 sequence (P35968 20-1356): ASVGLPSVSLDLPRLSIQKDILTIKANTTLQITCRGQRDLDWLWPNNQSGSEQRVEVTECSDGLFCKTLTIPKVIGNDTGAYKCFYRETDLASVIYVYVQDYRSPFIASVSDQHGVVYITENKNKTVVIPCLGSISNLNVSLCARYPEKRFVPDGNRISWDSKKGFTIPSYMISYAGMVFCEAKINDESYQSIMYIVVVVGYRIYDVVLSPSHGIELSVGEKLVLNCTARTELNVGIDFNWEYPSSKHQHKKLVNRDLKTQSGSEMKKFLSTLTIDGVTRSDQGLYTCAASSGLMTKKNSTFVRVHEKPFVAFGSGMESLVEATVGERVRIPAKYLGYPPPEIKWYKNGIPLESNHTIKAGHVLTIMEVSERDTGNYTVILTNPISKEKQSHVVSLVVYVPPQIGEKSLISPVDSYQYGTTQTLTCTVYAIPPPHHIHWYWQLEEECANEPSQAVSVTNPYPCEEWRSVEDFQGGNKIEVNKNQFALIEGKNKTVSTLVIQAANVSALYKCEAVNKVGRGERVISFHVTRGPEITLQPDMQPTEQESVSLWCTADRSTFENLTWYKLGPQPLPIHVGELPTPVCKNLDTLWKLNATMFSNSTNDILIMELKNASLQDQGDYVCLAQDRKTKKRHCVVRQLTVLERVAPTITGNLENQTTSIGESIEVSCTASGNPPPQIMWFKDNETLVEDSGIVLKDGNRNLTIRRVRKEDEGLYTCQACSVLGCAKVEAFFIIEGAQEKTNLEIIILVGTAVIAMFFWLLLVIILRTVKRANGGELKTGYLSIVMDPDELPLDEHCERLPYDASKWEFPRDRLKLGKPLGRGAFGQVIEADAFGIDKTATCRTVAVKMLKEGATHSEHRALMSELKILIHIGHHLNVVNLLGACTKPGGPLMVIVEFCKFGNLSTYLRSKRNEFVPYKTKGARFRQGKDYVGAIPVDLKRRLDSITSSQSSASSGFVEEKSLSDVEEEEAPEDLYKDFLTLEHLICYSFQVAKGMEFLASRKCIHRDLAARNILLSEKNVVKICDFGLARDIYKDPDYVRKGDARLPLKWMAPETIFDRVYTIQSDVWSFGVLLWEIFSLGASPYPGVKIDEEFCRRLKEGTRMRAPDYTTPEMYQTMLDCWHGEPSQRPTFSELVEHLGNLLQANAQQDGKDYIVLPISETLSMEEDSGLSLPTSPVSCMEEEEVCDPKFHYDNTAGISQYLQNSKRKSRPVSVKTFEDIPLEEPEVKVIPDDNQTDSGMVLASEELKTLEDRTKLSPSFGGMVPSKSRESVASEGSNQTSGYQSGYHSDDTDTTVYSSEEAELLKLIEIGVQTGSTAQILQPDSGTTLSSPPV
Procedure, shortened: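 Reaction with 3 nM VEGFR2, 2 μM Tyr1 peptide and 100 μM ATP in HEPES pH 7.5/MgCl2/EGTA/BRIJ-35, 1% DMSO, 60 min at room temperature; development reagent then 60 min at 23° C. Compounds tested at 11 threefold dilutions, 10 μM–0.17 nM final, in duplicate; IC50 from 4-parameter fit of inhibition.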

T1 sequence (P09619 33-1106): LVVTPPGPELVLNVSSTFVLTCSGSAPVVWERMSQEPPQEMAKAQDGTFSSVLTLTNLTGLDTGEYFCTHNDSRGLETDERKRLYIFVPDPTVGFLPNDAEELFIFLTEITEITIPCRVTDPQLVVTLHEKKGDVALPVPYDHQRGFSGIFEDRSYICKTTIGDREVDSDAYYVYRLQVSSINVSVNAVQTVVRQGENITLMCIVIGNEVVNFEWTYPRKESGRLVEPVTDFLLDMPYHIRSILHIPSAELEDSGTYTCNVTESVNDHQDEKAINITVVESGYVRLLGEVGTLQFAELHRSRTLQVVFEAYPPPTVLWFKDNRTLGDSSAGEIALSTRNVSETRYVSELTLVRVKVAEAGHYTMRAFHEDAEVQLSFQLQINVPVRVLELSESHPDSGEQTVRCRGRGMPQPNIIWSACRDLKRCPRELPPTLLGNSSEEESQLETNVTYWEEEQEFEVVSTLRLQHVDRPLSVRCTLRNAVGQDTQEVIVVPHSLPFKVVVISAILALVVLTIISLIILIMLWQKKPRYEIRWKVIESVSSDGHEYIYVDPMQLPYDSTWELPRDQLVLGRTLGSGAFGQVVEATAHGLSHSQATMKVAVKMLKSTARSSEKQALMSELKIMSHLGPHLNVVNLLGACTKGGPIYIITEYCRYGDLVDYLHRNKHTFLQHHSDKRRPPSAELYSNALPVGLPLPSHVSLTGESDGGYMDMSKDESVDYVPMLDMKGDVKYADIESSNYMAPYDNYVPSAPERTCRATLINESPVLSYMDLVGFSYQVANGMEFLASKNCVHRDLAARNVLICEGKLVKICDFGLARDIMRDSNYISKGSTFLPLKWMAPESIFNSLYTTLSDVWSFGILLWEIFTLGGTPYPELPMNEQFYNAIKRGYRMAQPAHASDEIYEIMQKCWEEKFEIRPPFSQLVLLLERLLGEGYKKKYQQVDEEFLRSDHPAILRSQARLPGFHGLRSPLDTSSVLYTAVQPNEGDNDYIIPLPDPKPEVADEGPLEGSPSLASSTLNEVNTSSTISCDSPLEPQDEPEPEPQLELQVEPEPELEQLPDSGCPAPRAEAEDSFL

Row | Structure (SMILES) | IC50 (PDGFRB) | IC50 (HUVEC) | IC50 (FGFR1) | TGI % (last administration) (Calu 6 Transplant model; 50 mg/kg) | IC50 (VEGFR2) | TGI % (last administration) (Calu 6 Transplant model; 100 mg/kg) | TGI % (last administration) (Calu 6 Transplant model; 10 mg/kg)
1 | COc1cc2nccc(Oc3ccc(NC(=S)NC4CC4)c(Cl)c3)c2cc1C(N)=O [Example 1] | 0.05 to 0.2 µM | < 0.1 µM | 0.2 to 1 µM | 57% | < 0.05 µM |  | 
2 | COc1cc2nccc(Oc3ccc4oc(C(=O)N5CC(F)(F)C5)cc4c3)c2cc1C(N)=O [Example 190] | 0.2 to 1 µM | 0.1 to 1 µM | 0.2 to 1 µM |  | 0.2 to 1 µM |  | 
3 | COc1cc2nccc(Oc3ccc4oc(C(=O)NC5CC5)cc4c3)c2cc1C(N)=O [Example 191] | 0.2 to 1 µM | 0.1 to 1 µM | 0.2 to 1 µM |  | 0.2 to 1 µM |  | 
4 | [2H]C([2H])([2H])NC(=O)c1coc2cc(Oc3ccnc4cc(OC)c(C(N)=O)cc34)ccc12 [Example 200] | < 0.05 µM | < 0.1 µM | 0.05 to 0.2 µM |  | < 0.05 µM | 59% | 
5 | COc1cc2nccc(Oc3cc4occ(C(=O)NC5CC5)c4cc3F)c2cc1C(N)=O [Example 207] | < 0.05 µM | 0.1 to 1 µM | 0.2 to 1 µM |  | < 0.05 µM |  | 
6 | [2H]C([2H])([2H])NC(=O)c1coc2cc(Oc3ccnc4cc(OC)c(C(N)=O)cc34)c(F)cc12 [Example 209] | < 0.05 µM | 0.1 to 1 µM | 0.05 to 0.2 µM |  | 0.05 to 0.2 µM |  | 
7 | CCNC(=O)c1coc2cc(Oc3ccnc4cc(OC)c(C(N)=O)cc34)ccc12 [Example 210] | < 0.05 µM | < 0.1 µM | 0.2 to 1 µM |  | < 0.05 µM |  | 
8 | Cn1cnc(-c2ccc3c(Oc4ccc(NC(=S)NC5CC5)c(Cl)c4)ccnc3c2)c1 [Example 212] | < 0.05 µM | 0.1 to 1 µM | 0.2 to 1 µM |  | < 0.05 µM |  | 
9 | Cn1cnc(-c2ccc3c(Oc4ccc(NC(=O)NC5CC5)c(Cl)c4F)ccnc3c2)c1 [Example 214] | 0.05 to 0.2 µM | < 0.1 µM | < 0.05 µM |  | < 0.05 µM |  | 
10 | Cn1cncc1-c1ccc2c(Oc3ccc(NC(=O)NC4CC4)c(Cl)c3F)ccnc2c1 [Example 215] | 0.05 to 0.2 µM | < 0.1 µM | 0.05 to 0.2 µM |  | < 0.05 µM |  | 
11 | CCNC(=O)Nc1ccc(Oc2ccnc3cc(-c4cn(C)cn4)ccc23)c(F)c1Cl [Example 216] | 0.05 to 0.2 µM | < 0.1 µM | < 0.05 µM |  | < 0.05 µM |  | 83%
12 | Cn1cnc(-c2ccc3c(Oc4ccc(NC(=O)N5CC(F)(F)C5)c(Cl)c4F)ccnc3c2)c1 [Example 218] | < 0.05 µM | 0.1 to 1 µM | 0.05 to 0.2 µM |  | < 0.05 µM |  | 
13 | Cn1cnc(-c2ccc3c(Oc4ccc(NC(=O)N5CCCC5)c(Cl)c4F)ccnc3c2)c1 [Example 219] | 0.05 to 0.2 µM | < 0.1 µM | < 0.05 µM |  | < 0.05 µM |  | 
14 | CCNC(=O)Nc1ccc(Oc2ccnc3cc(-c4cn(C)cn4)ccc23)cc1Cl [Example 220] | 0.05 to 0.2 µM | < 0.1 µM | < 0.05 µM |  | < 0.05 µM |  | 
15 | Cn1cnc(-c2ccc3c(Oc4ccc(NC(=O)NC5CC5)c(Cl)c4)ccnc3c2)c1 [Example 221] | 0.05 to 0.2 µM | < 0.1 µM | < 0.05 µM |  | < 0.05 µM |  | 
16 | CCNC(=O)c1coc2cc(Oc3ccnc4cc(-c5cn(C)cn5)ccc34)ccc12 [Example 222] | 0.05 to 0.2 µM | < 0.1 µM | < 0.05 µM |  | < 0.05 µM |  | 
17 | Cn1cnc(-c2ccc3c(Oc4ccc5c(C(=O)NC6CC6)coc5c4)ccnc3c2)c1 [Example 223] | 0.05 to 0.2 µM | < 0.1 µM | < 0.05 µM |  | < 0.05 µM |  | 
18 | [2H]C([2H])([2H])NC(=O)c1coc2cc(Oc3ccnc4cc(-c5cn(C)cn5)ccc34)ccc12 [Example 224] | < 0.05 µM | < 0.1 µM | < 0.05 µM |  | < 0.05 µM |  | 
19 | CNC(=O)c1coc2cc(Oc3ccnc4cc(-c5cn(C)cn5)ccc34)ccc12 [Example 225] | 0.05 to 0.2 µM | < 0.1 µM | < 0.05 µM |  | < 0.05 µM |  | 
